In patent US10995070B2, “Acetyl-CoA carboxylase modulators” (Monsanto Technology LLC, priority 2013, dated 2021):

Assays:
Assay type in all cases: cell-based
Saccharomyces cerevisiae = assay: Yeast growth inhibition assay; conditions: read-out: S. cerevisiae % growth inhibition
Description: Yeast cells (Ade2 strain) were grown in liquid YPD (1% yeast extract, 2% peptone, 2% dextrose) for 16 hours at 30° C. from previously sub-cultured plates of Saccharomyces cerevisiae. The OD600 of the overnight culture was checked via spectrophotometer and diluted to a concentration of 2×10^4 cells/ml.
Chemistry stocks were dissolved in DMSO to a concentration of 10 mM. Chemistry stocks were further diluted in a 96-well stock plate to obtain final concentrations of […] in 1% DMSO. The final concentrations of the soraphen positive control were 400, 40, and 3.2 nM. The negative controls on each plate included a background subtraction control containing yeast and 1% DMSO (without chemistry) and a second contamination control containing YPD (with no yeast) and 1% DMSO (without chemistry).
98 μl liquid YPD was added to 2 μl diluted stock of DMSO per well and mixed thoroughly. After mixing, 100 μl of the diluted yeast solution was added to bring the final yeast concentration to 1×10^4 cells/ml or 2000 cells per well. An initial spectrophotometric reading at OD600 was conducted on the entire plate and served as the 0 hours time point used to subtract any background. […] […] […] All experiments were conducted in triplicate. Averages were reported along with standard deviation calculation to generate error bars. Each plate contained its own controls and consisted of inoculated+DMSO, non-inoculated+DMSO, and a titration series of soraphen at 400, 40, and 3.2 nM.

Diplodia maydis = assay: Fungal growth inhibition assay, D. maydis; conditions: 48 h
Description: (§1) Spores were isolated from previously sub-cultured plates of Botrytis cinerea, Phytophthora capsici, Fusarium moniliforme, Fusarium viguliforme, Collectotrichum graminicola, and Diplodia maydis. All spores were filtered and collected in a sterile glass bowl to isolate the spores from the mycelia. The isolation and sub-culture plate condition for each pathogen is described below.
Spore isolation for D. maydis: A 3-4 week old PDA (pre-mix) plate was removed from 26° C. incubator with a light/dark 12 hour cycle and the mycelia were treated with 6-7 ml of sterile distilled water, scraped into a sterile petri dish, and smashed to open the pycnidia. The spores were then collected in a sterile filter bowl containing a fluted piece of filter paper and poured into a conical tube.
(§2) After spore isolation, pathogen spores were counted on a hemocytometer to calculate the spores/ml. In 17% V8 liquid media containing 3 g/L CaCO3, isolated spores were diluted to individual concentrations based on the growth curves at 48 hours of each pathogen. The spore concentrations for each pathogen were as follows: B. cinerea—10,000 sp/ml; P. capsici—300 sp/ml; F. monliforme—500 sp/ml; F. virguliforme—500 sp/ml; C. graminicola—3,000 sp/ml; and D. maydis—3,000 sp/ml.
(§3) Chemistry stocks were dissolved in DMSO at 2.5 mg/ml. Chemistry was diluted in a 96-well stock plate in five-fold dilutions to obtain a final concentration of 50, 10, and 2 ppm in vitro. The final concentration of the positive control after the five-fold dilutions was as follows: soraphen—0.5, 0.1, and 0.02 ppm. Negative controls on each plate included 2% DMSO, water containing spores and media, and a blank for background subtraction.
(§4) In a 96-well plate the spore solution, chemistries, and controls were combined to make the final solution concentrations mentioned above. Upon addition of the chemistry, an OD600 reading was done to assess chemical precipitation. The 96-well plates were incubated in plastic tubs containing wet paper towels under the following conditions, 25° C. in the dark for P. capsici and B. cinerea or 26° C. with light/dark cycle for C. graminicola, D. maydis, F. virguliforme, F. monliforme. Plate readings were repeated at 24 and 48 hrs. Visual ratings were performed at 24 and 48 hrs to check for precipitation and confirm efficacy. Visual and OD600 ratings of the chemistry at 48 hours were compared to the 2% DMSO control to determine the percent of pathogen growth inhibition.

Phytophthora capsici = assay: Fungal growth inhibition assay, P. capsici; conditions: 48 h
Excerpt: as §1
Spore isolation for P. capsici: Three to five days prior to the assay a 2-3 week old V8 (17%)+CaCO3 (3 g/L)+20 g agar plate was removed from a dark 25° C. incubator and cut up into small chunks. One plate was separated into two deep well plates and rinsed with sterile distilled water three times. The cut up pieces were incubated under light in a sterile filter hood with 25 ml of sterile distilled water. On the day of the assay the water was removed and 5-7 ml of fresh sterile distilled water was added. One plate was incubated at 4° C. for 45-60 minutes and then placed at room temperature for about 45-60 minutes. The spores were collected in a sterile filter bowl containing a fluted piece of filter paper. The spores were vortexed in a conical tube for 30-60 seconds to remove the flagella of the zoospores after isolation.
as §2, §3, §4

[1] = test system: Collectotrichum graminicola; assay: Fungal growth inhibition assay, C. graminicola; conditions: Colletotrichum graminicola, 48 h
Description: as §1
Spore isolation for C. graminicola: A 1-2 week old oatmeal agar (pre-mix) plate was removed from 26° C. incubator with a light/dark 12 hour cycle and the mycelia were treated with 10-15 ml of filter sterilized distilled water. The mycelia were scraped to re-suspend the spores. The spores were then collected in a sterile filter bowl containing a piece of sterile cheesecloth and poured into a conical tube.
as §2, §3, §4

Fusarium virguliforme = assay: Fungal growth inhibition assay, F. virguliforme; conditions: 48 h
Description: as §1
Spore isolation for F. virguliforme: A 2-3 week old PDA (pre-mix) plate containing cefotaxime (100 mg/L) and kanamycin (50 mg/L) was removed from 26° C. incubator with a light/dark 12 hour cycle and the mycelia were treated with 5-10 ml of filter sterilized distilled water. The mycelia were scraped to re-suspend the spores. The spores were then collected in a sterile filter bowl containing a fluted piece of filter paper and poured into a conical tube.
as §2, §3, §4

Fusarium moniloforme = assay: Fungal growth inhibition assay, F. moniliforme; conditions: 48 h
Description: as §1
Spore isolation for F. moniliforme: A 1 week old PDA (potato dextrose agar, pre-mix) plate was removed from 26° C. incubator with a light/dark 12 hour cycle and the mycelia were treated with 5-10 ml of filter sterilized Triton X 100 (0.05%). The mycelia were scraped to re-suspend the spores. The spores were then collected in a sterile filter bowl containing a fluted piece of filter paper.
as §2, §3, §4

O=C(O)Cc1ccc(-c2cc(-c3ccccc3)c3ccccc3n2)s1 [Formula Ib-iv, 2-(5-(4-phenylquinolin-2-yl)thiophen-2-yl)acetic acid] gave an inhibition at 3.7 µM (Saccharomyces cerevisiae) of 0%, an inhibition at 11.1 µM (Saccharomyces cerevisiae) of 0% and an inhibition at 33.3 µM (Saccharomyces cerevisiae) of 15%. It also gave an inhibition at 100 µM (Saccharomyces cerevisiae) of 99%, an inhibition at 2 ppm (Diplodia maydis) of 8% and an inhibition at 10 ppm (Diplodia maydis) of 45%. For the same compound, the inhibition at 50 ppm (Diplodia maydis; 50 ppm) was 89%, the inhibition at 2 ppm (Phytophthora capsici) was 0% and the inhibition at 10 ppm (Phytophthora capsici) was 11%. It also gave an inhibition at 50 ppm (Phytophthora capsici) of 80%, an inhibition at 2 ppm [1] of 0% and an inhibition at 10 ppm [1] of 53%. The inhibition at 50 ppm [1] was 97%, the inhibition at 2 ppm (Fusarium virguliforme) was 4% and the inhibition at 10 ppm (Fusarium virguliforme) was 29%. It also gave an inhibition at 2 ppm (Fusarium moniloforme) of 17%, an inhibition at 10 ppm (Fusarium moniloforme) of 31% and an inhibition at 50 ppm (Fusarium moniloforme; 50 ppm) of 36%.
O=C(O)Cc1ccc(-c2nc3ccccc3c(-c3ccccc3)c2Cl)s1 [Formula Ib-ii, 2-(5-(3-chloro-4-phenylquinolin-2-yl)thiophen-2-yl)acetic acid] was tested, and the inhibition at 3.7 µM (Saccharomyces cerevisiae) was 0%, the inhibition at 11.1 µM (Saccharomyces cerevisiae) was 0% and the inhibition at 33.3 µM (Saccharomyces cerevisiae) was 55%. For the same compound, the inhibition at 100 µM (Saccharomyces cerevisiae) was 79%, the inhibition at 2 ppm (Diplodia maydis) was 55% and the inhibition at 10 ppm (Diplodia maydis) was 70%. It also gave an inhibition at 2 ppm (Phytophthora capsici) of 18%, an inhibition at 10 ppm (Phytophthora capsici) of 31% and an inhibition at 50 ppm (Phytophthora capsici) of 49%. The inhibition at 2 ppm [1] was 0%, the inhibition at 10 ppm [1] was 67% and the inhibition at 50 ppm [1] was 78%. For the same compound, the inhibition at 2 ppm (Fusarium virguliforme) was 31%, the inhibition at 10 ppm (Fusarium virguliforme) was 41% and the inhibition at 2 ppm (Fusarium moniloforme) was 39%. For the same compound, the inhibition at 10 ppm (Fusarium moniloforme) was 45%.
